Laboratory results as given in PMC5964538, “Prevention of Cyclophosphamide-Induced Immunosuppression in Mice with the Antimicrobial Peptide Sublancin” (Journal of Immunology Research, 2018).
Counter-ions that a name gives are not always drawn.

How the values were obtained:
[1] = In vivo fluorescence imaging (biodistribution after oral dose); parameters: species or system BALB/c mice
Experimental: To observe the biodistribution of sublancin in vivo, sublancin was labeled with the near-infrared dye Cy7 monoreactive NHS ester (Invitrogen, CA, USA). Female BALB/c mice of 6–8 weeks old were given an oral dose of 100 μL Cy7-stained sublancin or free Cy7. At the indicated time points (0 h, 30 min, 2 h, 6 h, 12 h, 24 h, and 48 h), mice were anesthetized with 2.5% isoflurane and then placed in the in vivo Imaging System (FXPro Kodak). The excitation and emission bandpass filter was 730 nm and 790 nm, respectively. Fluorescence signals were collected by Carestream Molecular Imaging Software. At 12 h, mice were euthanized and the ex vivo optical images of the intestine, heart, liver, spleen, lung, and kidney were recorded using the same system.

TNF-α mRNA = assay: TNF-α gene expression in peritoneal macrophages after oral administration (real-time PCR); assay type: in vivo, BALB/c mice; details: oral 2.5 mg/kg BW/d for 7 days, vs control, P < 0.05, n = 6
IL-1β mRNA = assay: IL-1β gene expression in peritoneal macrophages after oral administration (real-time PCR); assay type: in vivo, BALB/c mice; details: oral 2.5 mg/kg BW/d for 7 days, vs control, P < 0.05, n = 6
[2] = Peripheral hemogram analysis in cyclophosphamide-treated mice; assay type: in vivo, BALB/c mice; details: gavage 10.0 mg/kg for 7 days, compared with the NC treatment (so in the source), n = 6
IL-6 mRNA = assay: IL-6 gene expression in peritoneal macrophages after oral administration (real-time PCR); assay type: in vivo, BALB/c mice; details: oral 2.5 mg/kg BW/d for 7 days, vs control, P < 0.05, n = 6

Structure (SMILES)	Fluorescence in the excised intestine (ex vivo images) ([1]; 12 h after gavage)	Fluorescent signal in the heart, liver, spleen, lung, and kidney (ex vivo images) ([1]; 12 h after gavage)	Presence in the intestine (in vivo fluorescence) ([1]; oral dose of 100 μL, twelve hours after administration)	Fluorescent signal in vivo ([1]; oral dose of 100 μL, within 6 h)	Gene expression level of TNF-α in peritoneal macrophages (TNF-α mRNA)	Gene expression level of IL-1β in peritoneal macrophages (IL-1β mRNA)	HGB [2]	Number of RBC [2]	Number of WBC [2]	Number of platelets [2]	Gene expression level of IL-6 in peritoneal macrophages (IL-6 mRNA)
CCN1C(=CC=CC=CC=CC2=[N+](CCCCCC(=O)O)c3ccc(S(=O)(=O)O)cc3C2(C)C)C(C)(C)c2cc(S(=O)(=O)[O-])ccc21 [free Cy7]	only very little	Almost no fluorescent signal	most of the free Cy7 had disappeared	weak fluorescent signals	–	–	–	–	–	–	–
c1ccc([C@H]2CN3CCSC3=N2)cc1 [levamisole hydrochloride]	–	–	–	–	higher than that in the control group	higher than that in the control group	higher	higher	higher	higher	higher than that in the control group
